Laboratory results from PMC11911254 (Pharmacological Reports, 2025).

Test: Concentration of paracetamol and its metabolites in plasma, CSF and brain cortex by LC-MS/MS
Details: for Concentration in CSF / Concentration in brain / Concentration in plasma: E19 rats; for concentration at 30 min: both, Sprague Dawley, rat, intraperitoneal, P4 rats
Experimental: Drug injection protocol is illustrated in Fig. 1.
Male and female postnatal P4 pups and 7–8 week-old non-pregnant females were used. […] In combination therapy experiments, this dose was accompanied by one of the 7 other drugs (Table 1). For all experiments, animals were terminally anesthetized 30 min after the drug injection using inhaled isoflurane (IsoFlo 100% w/w, Abbott Laboratories), and blood, CSF, and brain samples were collected. Blood was collected directly from the right cardiac ventricle, CSF from the cisterna magna, and cortical brain samples from the frontal/parietal lobes dorsal to the lateral ventricles as described previously.
Pregnant E19 dams were anesthetized with ip urethane injection (25% w/v urethane, Sigma, 1 ml/100 g body weight) and placed on a 39 °C heating pad in the supine position. An endotracheal catheter was inserted to maintain a clear airway. Catheters were inserted into the femoral vein and artery for iv drug administration and arterial blood sampling respectively. The cannula was flushed with 0.5 ml of heparinized saline (Hospira Inc, 5,000 units/ml) after drug administration and following each arterial blood sample. Following drug administration to the dams, fetuses were exteriorized and serially collected starting at 30 min post-maternal injection. […] At collection, the viability of each fetus was assessed (presence of a heartbeat, the colour of the umbilical vessels) and blood, CSF, and brain samples were taken along with a time-matched maternal blood sample from the femoral artery. At the end of the experiment, a final maternal blood sample was taken directly from the left cardiac ventricle, and CSF and brain samples were collected.
This method has been described previously for valproate, lamotrigine, and olanzapine and was applied in the present study. Simultaneous quantification was performed for all compounds in plasma, brain, and CSF samples following the addition of respective stable isotope-labeled internal standards.
Linear response range was determined in untreated control rat plasma for each compound at 0.1, 1, 10, 50, 100, 200, 400, and 800 µg/ml.

[1] = maternal iv paracetamol 15 mg/kg + cimetidine 11 mg/kg (PARA+CIM, n=10), median (IQR)
[2] = maternal iv paracetamol 15 mg/kg + digoxin 0.03 mg/kg (PARA+DIG, n=9), median (IQR)
[3] = maternal iv paracetamol 15 mg/kg + lamotrigine 6 mg/kg (PARA+LTG, n=10), median (IQR)
[4] = maternal iv paracetamol 15 mg/kg + olanzapine 0.15 mg/kg (PARA+OLZ, n=10), median (IQR), all values if <3 detected
[5] = maternal iv paracetamol 15 mg/kg + valproate 30 mg/kg (PARA+VPA, n=10), median (IQR), all values if <3 detected
[6] = maternal iv paracetamol 15 mg/kg monotherapy (PARA, n=10), median (IQR)

For `CC(=O)Nc1ccc(O)cc1` [Paracetamol, reference compound], the “Concentration in CSF” value [1] was 7.2 (1.7) µg/ml, the Concentration in brain [1] was 10.2 (5.7) µg/ml and the Concentration in plasma [1] was 7.6 (2.5) µg/ml. For the same compound, the “Concentration in CSF” value [2] was 6.5 (2.2) µg/ml, the Concentration in brain [2] was 6.6 (3.0) µg/ml and the Concentration in plasma [2] was 5.8 (2.2) µg/ml. The “Concentration in CSF” value [3] was 6.3 (3.4) µg/ml, the Concentration in brain [3] was 8 (2.6) µg/ml and the Concentration in plasma [3] was 6.2 (3.7) µg/ml. For the same compound, the Concentration in plasma (maternal iv paracetamol 15 mg/kg + olanzapine 0.15 mg/kg (PARA+OLZ, n=10), median (IQR)) was 4.1 (3.7) µg/ml, the “Concentration in CSF” value [4] was 4.7 (4.0) µg/ml and the Concentration in brain [4] was 8.7 (3.9) µg/ml. For the same compound, the Concentration in plasma (maternal iv paracetamol 15 mg/kg + olanzapine 0.15 mg/kg (PARA+OLZ, n=10), median (IQR), listed as paracetamol) was 4.1 µg/mL, the “Concentration in CSF” value (maternal iv paracetamol 15 mg/kg + valproate 30 mg/kg (PARA+VPA, n=10), median (IQR)) was 5.9 (2.1) µg/ml and the Concentration in brain [5] was 6.9 (2.1) µg/ml. The Concentration in plasma [5] was 6.0 (2.5) µg/ml, the “Concentration in CSF” value [6] was 8.0 (3.2) µg/ml and the Concentration in brain [6] was 9.3 (5.0) µg/ml. The Concentration in plasma [6] was 7.5 (2.9) µg/ml, the Concentration in plasma (maternal iv paracetamol 15 mg/kg monotherapy (PARA, n=10), median (IQR), listed as paracetamol) was 7.5 µg/mL and the “change in plasma concentration following combination therapy” value (adults, any of the drugs investigated, Kruskal-Wallis test) was “no significant changes”. The concentration at 30 min (CSF, 15 mg/kg, Concentration in CSF, 30 min after ip paracetamol 15 mg/kg monotherapy (PARA, n=4), median (IQR)) was 7000 ng/mL, the concentration at 30 min (CSF, Concentration in CSF, 30 min after ip paracetamol 15 mg/kg + cimetidine 11 mg/kg (PARA+CIM, n=4), median (IQR)) was 6200 ng/mL and the concentration at 30 min (CSF, Concentration in CSF, 30 min after ip paracetamol 15 mg/kg + digoxin 0.03 mg/kg (PARA+DIG, n=4), median (IQR)) was 6300 ng/mL. The concentration at 30 min (CSF, Concentration in CSF, 30 min after ip paracetamol 15 mg/kg + fluvoxamine 1.5 mg/kg (PARA+FLX, n=4), median (IQR)) was 9400 ng/mL, the concentration at 30 min (CSF, Concentration in CSF, 30 min after ip paracetamol 15 mg/kg + lamotrigine 6 mg/kg (PARA+LTG, n=5), median (IQR)) was 7200 ng/mL and the concentration at 30 min (CSF, Concentration in CSF, 30 min after ip paracetamol 15 mg/kg + lithium 3.2 mg/kg (PARA+Li, n=4), median (IQR)) was 4700 ng/mL. It also gave a concentration at 30 min (CSF, Concentration in CSF, 30 min after ip paracetamol 15 mg/kg + olanzapine 0.15 mg/kg (PARA+OLZ, n=4), median (IQR)) of 5300 ng/mL, a concentration at 30 min (CSF, Concentration in CSF, 30 min after ip paracetamol 15 mg/kg + valproate 30 mg/kg (PARA+VPA, n=4), median (IQR)) of 6400 ng/mL and a concentration at 30 min (brain cortex, 15 mg/kg, Concentration in brain, 30 min after ip paracetamol 15 mg/kg monotherapy (PARA, n=4), median (IQR)) of 8900 ng/mL. The concentration at 30 min (brain cortex, Concentration in brain, 30 min after ip paracetamol 15 mg/kg + cimetidine 11 mg/kg (PARA+CIM, n=4), median (IQR)) was 9000 ng/mL, the concentration at 30 min (brain cortex, Concentration in brain, 30 min after ip paracetamol 15 mg/kg + digoxin 0.03 mg/kg (PARA+DIG, n=4), median (IQR)) was 10300 ng/mL and the concentration at 30 min (brain cortex, Concentration in brain, 30 min after ip paracetamol 15 mg/kg + fluvoxamine 1.5 mg/kg (PARA+FLX, n=4), median (IQR) or individual values) was 8700 ng/mL. It also gave a concentration at 30 min (brain cortex, Concentration in brain, 30 min after ip paracetamol 15 mg/kg + lamotrigine 6 mg/kg (PARA+LTG, n=5), median (IQR)) of 9900 ng/mL, a concentration at 30 min (brain cortex, Concentration in brain, 30 min after ip paracetamol 15 mg/kg + lithium 3.2 mg/kg (PARA+Li, n=4), median (IQR)) of 7600 ng/mL and a concentration at 30 min (brain cortex, Concentration in brain, 30 min after ip paracetamol 15 mg/kg + olanzapine 0.15 mg/kg (PARA+OLZ, n=4), median (IQR)) of 6900 ng/mL.
